1 compound from patent US20060127890A1, “Novel gene overexpressed in heart and skeletal muscle and use thereof” (priority 2000, published 2006) can be followed below.

Structures are written as SMILES.

The test system of the assay is rat 187-2 gene. The experiment in a line: Expression analysis of the rat 187-2 gene in H9c2 cells by TaqMan PCR upon norepinephrine stimulation. The format is cell-based. Conditions: serum-free DMEM, norepinephrine 10 nM or 100 nM, after 4 and 8 hours, corrected on G3PDH, versus absence of norepinephrine. The method, then:
H9c2 cells are a cell strain derived from rat myocardial cells, and were purchased from ATCC. The cells were cultured in DMEM medium containing 10% bovine serum, and the cells were recovered using trypsin, inoculated at a density of 100000 cells/well of a 12-well plate and cultured for 12 hours in DMEM medium containing 10% bovine serum. Thereafter, the medium was exchanged with serum-free DMEM, and 10 nM norepinephrine was added at a concentration of 10 nM or 100 nM to the medium, and after 4 and 8 hours, the amount of the rat 187-2 gene expressed was quantified by TaqMan PCR.
(Real-time PCR tracks product formation cycle by cycle.)

Regarding `NC[C@H](O)c1ccc(O)c(O)c1` [norepinephrine], the “amount of the rat 187-2 gene expressed (maximum level)” value was “about twice that in the absence of norepinephrine”.
